Measurements: patent publication US8025894B2, “Innovative formulation” (Endura S.p.A., priority 2005, dated 2011)

Tested on: Bemisia tabaci (whitefly) biotype B
Assay: Mortality assay (leaf dip bioassay)
Type: in vivo
Conditions: adult insects on treated cotton leaf discs, mortality evaluated at 24 and 48 hours
Procedure: The “leaf dip bioassay” used for testing the activity of insecticides against Bemisia tabaci (whitefly) biotype B, was similar to that described by Cahill, M et al, Bull. Entomol. Res. 85, 181-187, 1995.
Cotton plants (Gossypium hirsutum L.) were grown without any exposure to the insecticides. The leaves were cut up into disc shapes and immersed in an aqueous solution of insecticide containing 0.01% of Agral then left to dry at 25° C.
Control leaves were immersed in Agral and distilled water only.
About 20 adult insects were placed onto the small discs of treated cotton leaf.
The insects were allowed to feed and maximum mortality was evaluated at 24 and 48 hours.
LC50% a.i. (=active ingredient) and LC99% a.i. indicate the quantity of insecticide able to achieve mortality for 50% and 99% of the insects tested.
As a comparison, the data obtained with commercial bifenthrin in the absence of the synergistic compound (PBO) and the data obtained with commercial bifenthrin in a mixture with the same quantity of PBO present in the formulation product of example 1 are given in the same table.

Question: For `Cc1c(COC(=O)[C@@H]2[C@H](/C=C(\Cl)C(F)(F)F)C2(C)C)cccc1-c1ccccc1` (racemic) [Bifenthrin], which LC50% a.i. (quantity of insecticide giving 50% mortality) is on record?
Answer: 0.01 ppm

Question: And the LC99% a.i. (quantity of insecticide giving 99% mortality)?
Answer: 257 ppm
